# In PubChem BioAssay (NCI):
#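 GI50 marks 50% less growth. TGI: concentration producing complete growth inhibition.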
# Assays:
# Assay in all cases: DTP human tumour cell line panel, 384-well format
# [1] = tested on: 786-0 renal
# [2] = tested on: A498 renal
# [3] = tested on: A549 NSCLC
# [4] = tested on: ACHN renal
# [5] = tested on: BT-549 breast
# [6] = tested on: CAKI-1 renal
# [7] = tested on: CCRF-CEM leukemia
# [8] = tested on: DU-145 prostate
# [9] = tested on: HCT-116 colon
# [10] = tested on: HCT-15 colon
# [11] = tested on: HL-60(TB) leukemia
# [12] = tested on: HOP-62 NSCLC
# [13] = tested on: HOP-92 NSCLC
# [14] = tested on: HS 578T breast
# [15] = tested on: HT29 colon
# [16] = tested on: IGROV1 ovarian
# [17] = tested on: K-562 leukemia
# [18] = tested on: KM12 colon
# [19] = tested on: M14 melanoma
# [20] = tested on: MALME-3M melanoma
# [21] = tested on: MCF7 breast
# [22] = tested on: MDA-MB-231 breast
# [23] = tested on: MDA-MB-435 melanoma
# [24] = tested on: MDA-MB-468 breast
# [25] = tested on: MOLT-4 leukemia
# [26] = tested on: NCI-H226 lung
# [27] = tested on: NCI-H23 lung
# [28] = tested on: NCI-H322M lung
# [29] = tested on: NCI-H522 lung
# [30] = tested on: NCI/ADR-RES ovarian
# [31] = tested on: OVCAR-3 ovarian
# [32] = tested on: OVCAR-4 ovarian
# [33] = tested on: OVCAR-5 ovarian
# [34] = tested on: OVCAR-8 ovarian
# [35] = tested on: PC-3 prostate
# [36] = tested on: RPMI-8226 leukemia
# [37] = tested on: RXF 393 renal
# [38] = tested on: SF-268 CNS
# [39] = tested on: SF-295 CNS
# [40] = tested on: SF-539 CNS
# [41] = tested on: SK-MEL-2 melanoma
# [42] = tested on: SK-MEL-28 melanoma
# [43] = tested on: SK-OV-3 ovarian
# [44] = tested on: SN12C renal
# [45] = tested on: SNB-19 CNS
# [46] = tested on: SNB-75 CNS
# [47] = tested on: SW-620 colon
# [48] = tested on: T-47D breast
# [49] = tested on: TK-10 renal
# [50] = tested on: U251 glioblastoma
# [51] = tested on: UACC-257 melanoma
# [52] = tested on: UACC-62 melanoma
# [53] = tested on: UO-31 renal
smiles,measurement,setting,value
CCCCC(=O)OCC(=O)[C@]1(O)Cc2c(O)c3c(c(O)c2[C@@H](OC2CC(NC(=O)C(F)(F)F)C(O)C(C)O2)C1)C(=O)c1c(OC)cccc1C3=O (some centres undefined),GI50,[1],0.0642 µM
same,TGI,[1],1.98 µM
same,GI50,[2],0.0875 µM
same,TGI,[2],2.87 µM
same,GI50,[3],0.0844 µM
same,TGI,[3],1.78 µM
same,GI50,[4],0.213 µM
same,TGI,[4],1.89 µM
same,GI50,[5],0.0738 µM
same,TGI,[5],1.44 µM
same,GI50,[6],0.128 µM
same,TGI,[6],2.53 µM
same,GI50,[7],0.0173 µM
same,TGI,[7],0.0323 µM
same,GI50,[8],0.0371 µM
same,TGI,[8],1 µM
same,GI50,[9],0.049 µM
same,TGI,[9],34 µM
same,GI50,[10],0.0985 µM
same,TGI,[10],1.62 µM
same,TGI,[11],0.0166 µM
same,GI50,[12],0.0421 µM
same,TGI,[12],0.327 µM
same,GI50,[13],0.142 µM
same,TGI,[13],19.2 µM
same,GI50,[14],0.122 µM
same,TGI,[14],1.87 µM
same,GI50,[15],0.303 µM
same,TGI,[15],2.29 µM
same,GI50,[16],1.11 µM
same,TGI,[16],3.86 µM
same,GI50,[17],0.104 µM
same,TGI,[17],1.76 µM
same,GI50,[18],0.0996 µM
same,TGI,[18],1.7 µM
same,GI50,[19],0.0732 µM
same,TGI,[19],1.38 µM
same,GI50,[20],0.188 µM
same,TGI,[20],1.66 µM
same,GI50,[21],0.0849 µM
same,TGI,[21],7.56 µM
same,GI50,[22],0.126 µM
same,TGI,[22],2.1 µM
same,GI50,[23],0.738 µM
same,TGI,[23],2.63 µM
same,GI50,[24],0.0299 µM
same,TGI,[24],0.0859 µM
same,TGI,[25],0.0104 µM
same,GI50,[26],0.122 µM
same,TGI,[26],1.19 µM
same,GI50,[27],0.0603 µM
same,TGI,[27],1.15 µM
same,GI50,[28],2.42 µM
same,TGI,[28],15.2 µM
same,GI50,[29],0.101 µM
same,TGI,[29],1 µM
same,GI50,[30],7.46 µM
same,TGI,[30],44.1 µM
same,GI50,[31],1.2 µM
same,TGI,[31],44.5 µM
same,GI50,[32],1.68 µM
same,TGI,[32],7.01 µM
same,GI50,[33],1.24 µM
same,TGI,[33],5.62 µM
same,GI50,[34],0.0733 µM
same,TGI,[34],1.81 µM
same,GI50,[35],1.02 µM
same,TGI,[35],4.02 µM
same,GI50,[36],0.0129 µM
same,TGI,[36],0.036 µM
same,GI50,[37],0.32 µM
same,TGI,[37],1.94 µM
same,GI50,[38],0.0702 µM
same,TGI,[38],2.11 µM
same,GI50,[39],0.0536 µM
same,TGI,[39],1.46 µM
same,GI50,[40],0.0731 µM
same,TGI,[40],1.34 µM
same,GI50,[41],0.372 µM
same,TGI,[41],0.991 µM
same,GI50,[42],0.468 µM
same,TGI,[42],2.02 µM
same,GI50,[43],0.107 µM
same,TGI,[43],5.44 µM
same,GI50,[44],0.0606 µM
same,TGI,[44],1.37 µM
same,GI50,[45],0.0648 µM
same,TGI,[45],11.9 µM
same,GI50,[46],0.142 µM
same,TGI,[46],1.29 µM
same,GI50,[47],0.0753 µM
same,TGI,[47],16.2 µM
same,GI50,[48],0.0962 µM
same,TGI,[48],2.57 µM
same,GI50,[49],0.997 µM
same,TGI,[49],5.09 µM
same,GI50,[50],0.045 µM
same,TGI,[50],10.4 µM
same,GI50,[51],0.404 µM
same,TGI,[51],1.74 µM
same,GI50,[52],0.0506 µM
same,TGI,[52],1.02 µM
same,GI50,[53],1.48 µM
same,TGI,[53],2.99 µM
